Test results from publication PMC8744835, “Sterically Hindered Quaternary Phosphonium Salts (QPSs): Antimicrobial Activity and Hemolytic and Cytotoxic Properties” (International Journal of Molecular Sciences, 2021).

Key:
[1] = system: Bacillus cereus ATCC 10702 NCTC 8035; assay: Antimicrobial activity, serial dilution technique in Mueller–Hinton Broth 2; type: cell-based; settings: average of three ± SD, - means non-active
Outline: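 Compounds were serially diluted in Mueller–Hinton Broth 2 and inoculated with the Gram-positive strain Bacillus cereus ATCC 10702 NCTC 8035 at 3.0 × 10^5 cfu/mL, then incubated at 37 °C. Observations were taken every 24 h over 5 days in three repeat experiments. The MIC was the lowest concentration that stopped growth, with bacteriostatic absence of growth also noted.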

[2] = system: Enterococcus faecalis ATCC 2921; assay: as above; type: cell-based; settings: average of three ± SD, - means non-active
Outline: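 Antibacterial activity against Enterococcus faecalis ATCC 2921 was assessed by serial dilution in Mueller–Hinton Broth 2 with a bacterial load of 3.0 × 10^5 cfu/mL. Cultures were incubated at 37 °C, with growth recorded every 24 h for 5 days, and the experiment was performed three times.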

[3] = system: Escherichia coli ATCC 25922; assay: as above; type: cell-based; settings: average of three ± SD, - means non-active
Outline: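 Growth inhibition is scored in Mueller–Hinton Broth 2 dilution series seeded with 3.0 × 10^5 cfu/mL and held at 37 °C for up to 5 days. Values reported are MICs, the lowest concentration without growth.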

[4] = system: Staphylococcus aureus ATCC 6538P FDA 209P; assay: as above; type: cell-based; settings: average of three ± SD, - means non-active
Outline: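 Using a broth serial dilution method in Mueller–Hinton Broth 2, S. aureus ATCC 6538P FDA 209P (3.0 × 10^5 cfu/mL) was exposed to compounds at 37 °C and observed daily over 5 days. MIC was the lowest concentration preventing growth; bacteriostatic absence of growth was also noted, with three replicate experiments.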

[5] = system: methicillin-resistant S. aureus MRSA-1; assay: as above; type: cell-based, Staphylococcus aureus; settings: - means non-active
Outline: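 Antimicrobial activity against methicillin-susceptible Staphylococcus aureus MRSA-1, a hospital isolate from a chronic tonsillitis patient that is resistant to fluoroquinolones and beta-lactams, was determined by serial dilution in Mueller–Hinton Broth 2. The bacterial load was 3.0 × 10^5 cfu/mL, incubation was at 37 °C, and growth was recorded every 24 h for 5 days.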

[6] = system: methicillin-resistant S. aureus MRSA-2; assay: as above; type: cell-based, Staphylococcus aureus; settings: - means non-active
Outline: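 Antimicrobial activity against methicillin-susceptible Staphylococcus aureus MRSA-2, a beta-lactam-resistant clinical isolate from a sinusitis patient at the Republican Clinical Hospital (Kazan), was assessed by serial dilution in Mueller–Hinton Broth 2. The inoculum was 3.0 × 10^5 cfu/mL. Cultures were incubated at 37 °C and read every 24 h for 5 days, in three repeat experiments.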

[7] = system: Candida albicans ATCC 10231; assay: Fungicidal activity, serial dilution technique; type: cell-based; settings: average of three ± SD, - means non-active
Outline: (§1)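 Growth inhibition was scored every 24 h across 5 days at 37 °C in a broth serial dilution series (Mueller–Hinton Broth 2, 3.0 × 10^5 cfu/mL load). Triplicate experiments; minimum inhibitory concentration recorded.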

[8] = system: Trichophyton mentagrophytes var. gypseum 1773; assay: Fungicidal activity, serial dilution technique; type: cell-based; settings: Tm, average of three ± SD, - means non-active
Outline: as §1

human erythrocytes = assay: Hemolytic activity; type: cell-based; settings: red blood cells
Excerpt: An important characteristic when assessing the biological activity of new chemical compounds is their cytotoxic effect on eukaryotic cells. The ability of an investigated compound to cause the destruction of human erythrocytes illustrates its toxic effect on the internal environment. The hemolysis assay is a simple screening test that can help in the study of cytotoxicity in more complex models. Cell lines obtained from various human organs and tissues that allow for adequate estimation of the effects of new potential drugs on cell metabolism can serve as experimental models.
The hemolytic activity of the QPSs was estimated by comparing the optical density of a solution containing the test compound with that of blood at 100% hemolysis. The experiments were carried out as previously described.

Chang liver cell line = assay: Cytotoxicity assay (Cytell Cell Imaging, DAPI/propidium iodide); type: cell-based, human
[9] = system: Escherichia coli ATCC 25922; assay: Antimicrobial activity, serial dilution technique in Mueller–Hinton Broth 2; type: cell-based; settings: average of three ± SD, - means non-active; remark: listed apart in the source

CCCCCCCCCC[P+](C(C)(C)C)(C(C)(C)C)C(C)(C)C [Compound 10a]
MIC ([1]; Bacillus cereus, Bc, read-out: Minimum Inhibitory Concentration (MIC), Bc): 3.9 ± 0.2 µg/mL
Minimum Bactericidal and Fungicidal Concentration (MBC, MFC), Bc [1]: 31.3 ± 2.5 µg/mL
MBC ([2]; Enterococcus faecalis, ATCC2921, Ef, read-out: Minimum Bactericidal and Fungicidal Concentration (MBC, MFC), Ef): 7.8 ± 0.6 µg/mL
MIC ([2]; Enterococcus faecalis, ATCC2921, Ef, read-out: Minimum Inhibitory Concentration (MIC), Ef): 7.8 ± 0.6 µg/mL
MIC ([3]; Escherichia coli, ATCC25922, Ec, read-out: Minimum Inhibitory Concentration (MIC), Ec): 31.3 ± 2.7 µg/mL
Minimum Bactericidal and Fungicidal Concentration (MBC, MFC), Sa [4]: 1.9 ± 0.1 µg/mL
Minimum Inhibitory Concentration (MIC), Sa [4]: 1.9 ± 0.1 µg/mL
MIC ([5]; Staphylococcus aureus, MRSA, MRSA-1 (resistant to fluoroquinolones and beta-lactams), read-out: Minimum Inhibitory Concentration (MIC), MRSA-1): 1.9 ± 0.1 µg/mL
MBC ([5]; Staphylococcus aureus, MRSA, MRSA-1, read-out: Minimum Bactericidal and Fungicidal Concentration (MBC, MFC), MRSA-1): 15.6 ± 1.2 µg/mL
MIC ([6]; Staphylococcus aureus, MRSA, MRSA-2 (resistant to beta-lactams), read-out: Minimum Inhibitory Concentration (MIC), MRSA-2): 3.9 ± 0.2 µg/mL
MBC ([6]; Staphylococcus aureus, MRSA, MRSA-2, read-out: Minimum Bactericidal and Fungicidal Concentration (MBC, MFC), MRSA-2): 3.9 ± 0.2 µg/mL
MBC ([7]; Candida albicans, ATCC10231, Ca, read-out: Minimum Bactericidal and Fungicidal Concentration (MBC, MFC), Ca): 31.3 ± 2.3 µg/mL
MIC ([7]; Candida albicans, ATCC10231, Ca, read-out: Minimum Inhibitory Concentration (MIC), Ca): 31.3 ± 2.6 µg/mL
MBC ([8]; Trichophyton mentagrophytes, read-out: Minimum Bactericidal and Fungicidal Concentration (MBC, MFC), Tm): 125 ± 11 µg/mL
MIC ([8]; Trichophyton mentagrophytes, read-out: Minimum Inhibitory Concentration (MIC), Tm): 125 ± 11 µg/mL
HC50 (concentration that causes 50% hemolysis of erythrocytes) (human erythrocytes): > 125 µg/mL
IC50 (Chang liver cell line; Homo sapiens, Chang liver, read-out: IC50 (concentration that causes the death of 50% of the cells), Chang liver cells): 66 µg/mL
MBC ([9]; Escherichia coli, ATCC25922, Ec, read-out: Minimum Bactericidal and Fungicidal Concentration (MBC, MFC), Ec): 31.3 ± 2.6 µg/mL

CCCCCCCCCC[P+](C(C)(C)C)(C(C)(C)C)C(C)(C)C [Compound 10b]
Minimum Bactericidal and Fungicidal Concentration (MBC, MFC), Bc [1]: 125 ± 9 µg/mL
Minimum Inhibitory Concentration (MIC), Bc [1]: 7.8 ± 0.6 µg/mL
Minimum Bactericidal and Fungicidal Concentration (MBC, MFC), Ef ([2]; Ef): 15.6 ± 1.2 µg/mL
Minimum Inhibitory Concentration (MIC), Ef ([2]; Ef): 15.6 ± 1.3 µg/mL
Minimum Inhibitory Concentration (MIC), Ec ([3]; Ec): 62.5 ± 5.4 µg/mL
Minimum Bactericidal and Fungicidal Concentration (MBC, MFC), Sa [4]: 3.9 ± 0.2 µg/mL
Minimum Inhibitory Concentration (MIC), Sa [4]: 3.9 ± 0.2 µg/mL
Minimum Inhibitory Concentration (MIC), MRSA-1 ([5]; MRSA-1 (resistant to fluoroquinolones and beta-lactams)): 1.9 ± 0.1 µg/mL
Minimum Bactericidal and Fungicidal Concentration (MBC, MFC), MRSA-1 ([5]; MRSA-1): 15.6 ± 1.3 µg/mL
Minimum Inhibitory Concentration (MIC), MRSA-2 ([6]; MRSA-2 (resistant to beta-lactams)): 3.9 ± 0.2 µg/mL
Minimum Bactericidal and Fungicidal Concentration (MBC, MFC), MRSA-2 ([6]; MRSA-2): 7.8 ± 0.6 µg/mL
Minimum Bactericidal and Fungicidal Concentration (MBC, MFC), Ca ([7]; Ca): 31.3 ± 2.2 µg/mL
Minimum Inhibitory Concentration (MIC), Ca ([7]; Ca): 31.3 ± 2.4 µg/mL
Minimum Bactericidal and Fungicidal Concentration (MBC, MFC), Tm [8]: 125 ± 10 µg/mL
Minimum Inhibitory Concentration (MIC), Tm [8]: 125 ± 10 µg/mL
HC50 (concentration that causes 50% hemolysis of erythrocytes) (human erythrocytes): > 125 µg/mL
IC50 (concentration that causes the death of 50% of the cells) (Chang liver cell line; Chang liver cells): 71 µg/mL
Minimum Bactericidal and Fungicidal Concentration (MBC, MFC), Ec ([9]; Ec): 62.5 ± 5.5 µg/mL
